# Measured values reported in patent publication US8293744B2, “Heterocyclic fused cinnoline M1 receptor positive allosteric modulators” (Merck Sharp & Dohme Corp., priority 2009, dated 2012).
# pEC50: −log10 of the molar value.
# Biological target: T1, acetylcholine muscarinic M1 receptor (Homo sapiens, UniProt P11229)
# T1 construct: expressed in transfected cells; host or cells: CHOnfat (CHO cells; also called CHOK1/hM1)
# T1 sequence (P11229 1-460): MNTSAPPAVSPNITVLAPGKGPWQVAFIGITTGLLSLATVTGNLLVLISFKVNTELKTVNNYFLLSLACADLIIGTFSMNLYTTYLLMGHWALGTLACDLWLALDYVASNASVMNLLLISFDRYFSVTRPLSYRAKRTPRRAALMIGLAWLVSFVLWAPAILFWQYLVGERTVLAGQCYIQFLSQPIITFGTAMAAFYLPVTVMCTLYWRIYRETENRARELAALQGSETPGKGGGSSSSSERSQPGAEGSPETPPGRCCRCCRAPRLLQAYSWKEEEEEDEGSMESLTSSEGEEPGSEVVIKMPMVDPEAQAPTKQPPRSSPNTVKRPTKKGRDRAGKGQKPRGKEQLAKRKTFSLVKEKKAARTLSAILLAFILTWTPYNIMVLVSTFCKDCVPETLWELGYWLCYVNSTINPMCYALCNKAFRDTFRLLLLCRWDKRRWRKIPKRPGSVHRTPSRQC
# Test: muscarinic FLIPR assay: potentiation of acetylcholine (EC20)-stimulated intracellular Ca2+ in CHOnfat/hM1 cells
# Type: cell-based
# Details: 4 min preincubation, then EC20 acetylcholine (3 nM final), read-out: IP Value (inflection point)
# Procedure: The assay studies the effect of one or several concentrations of test compounds on basal or acetylcholine-stimulated Ca^2+ levels using FLIPR.
# Compounds are prepared and subjected to a preincubation period of 4 min. Thereafter, a single EC20 concentration of acetylcholine is added to each well (3 nM final). The intracellular Ca^2+ level of each sample is measured and compared to an acetylcholine control to determine any modulatory activity
# Cells: CHOnfat/hM1, hM2, hM3 or hM4 cells are plated 24 hr before the assay at a density of 18,000 cells/well (100 μL) in a 384 well plate. CHOnfat/hM1 and CHOnfat/hM3 Growth Medium: 90% DMEM (Hi Glucose); 10% HI FBS; 2 mM L-glutamine; 0.1 mM NEAA; Pen-Strep; and 1 mg/ml Geneticin, are added. For M2Gqi5CHOnfat and M4Gqi5CHOnfat cells, an additional 600 ug/ml hygromycin is added.
# Equipment: 384 well plate, 120 μL addition plate; 96-well Whatman 2 ml Uniplate Incubator, 37° C., 5% CO2; Skatron EMBLA-384 Plate Washer; Multimek Pipetting System; Genesis Freedom 200 System; Mosquito System; Temo Nanolitre Pipetting System; and FLIPR^384 Fluorometric Imaging Plate Reader System are used.
# Buffers. Assay Buffer: Hanks Balanced Salt Solution, with 20 mM Hepes, 2.5 mM Probenecid (Sigma P-8761) first dissolved in 1 N NaOH, 1% Bovine Serum Albumin (Sigma A-9647). Dye Loading Buffer: Assay Buffer plus 1% Fetal Bovine Serum and Fluo-4AM/Pluronic Acid Mixture. 2 mM Fluo-4AM ester stock in DMSO (Molecular Probes F-14202) Concentration of 2 μM in buffer for a final concentration of 1 μM in Assay. 20% Pluronic Acid Solution stock, with concentration of 0.04% in Buffer, 0.02% in Assay.
# 65 μL of 2 mM Fluo-4AM are mixed with 130 μL of 20% Pluronic Acid. The resulting solution and 650 μL FBS is added to the assay buffer for a total volume of 65 mL. Positive Controls; 4-Br-A23187: 10 mM in DMSO; final concentration 10 μM. Acetylcholine: 10 mM in water, working stock at both 20 μM and 30 μM in assay buffer, final concentration of 10 μM. This is used to check the maximum stimulation of the CHOK1/hM1 cells. 20 μM (2×) acetylcholine is added in the preincubation part of the assay, and the 30 μM (3×) stock is added in the second part. (EC20)Acetylcholine; 10 mM in water, working stock of 9 nM (3×), and final concentration in assay is 3 nM. This is used after the preincubation with test compounds. Addition of the EC20 Acetylcholine to each well with a test compound will ascertain any modulator activity. 24 wells contain 3 nM Acetylcholine alone as a control.
# Screening Plate: Compounds are titrated in 96-well plates (columns 2-11), 100% DMSO, started at a concentration of 15 mM (150× stock concentration), and 3-fold serial dilutions using Genesis Freedom 200 System. Four 96-well plates are combined into a 384-well plate using Mosquito Nanolitre Pipetting System by transferring 1 μl of serial diluted compounds to each well, and 1 mM acetylcholine (100× stock concentration) were added as a control. Using Temo, 49 μl assay buffer is added to each well of the 384-well plate right before assay.
# In a 96-well Whatman 2 ml Uniplate, 9 nM Acetylcholine (3×) is pipetted into wells corresponding to the screening compounds, and into control wells. The 30 μM acetylcholine control (3×) is added into control wells, and the 3× agonist plate is transferred into a 384 well plate.
# Cells are washed three times with 100 μL of buffer, leaving 30 μL of buffer in each well. Using Multimek, 30 μL of Dye Loading Buffer is added into each well and incubated at 37° C., 5% CO2 for up to one hr.
# After 60 min, the cells are washed three times with 100 μL of buffer, leaving 30 μL of buffer in each well. The cell plate, screening plate, and agonist addition plates are placed on the platform in the FLIPR and the door closed. A signal test to check background fluorescence and basal fluorescence signal is performed. Laser intensity is adjusted if necessary. […]
row,Compound,pEC50
1,"Cc1cccc(-n2nc3c4cccnc4n(Cc4ccc(Cl)nc4)nc-3c2=O)c1C [Example 4, 5-[(6-Chloropyridin-3-yl)methyl]-2-(2,3-dimethylphenyl)-2,5-dihydro-3H-pyrazolo[4,3-c]pyrido[3,2-e]pyridazin-3-one]",6.44
2,Cc1c(-n2nc3c4sccc4n(Cc4ccc(-n5cccn5)cc4)nc-3c2=O)ccnc1F [Example 34],7.48
3,"Cc1ccc(-c2ccc(Cn3nc4c(=O)n(-c5cccc(C)c5C)nc-4c4cccnc43)cn2)cn1 [Example 5, 2-(2,3-Dimethylphenyl)-5-[(6′-methyl-2,3′-bipyridin-5-yl)methyl]-2,5-dihydro-3H-pyrazolo[4,3-c]pyrido[3,2-e]pyridazin-3-one]",6.96
4,Cc1cncc(-c2ccc(Cn3nc4c(=O)n(C5CCCOC5)nc-4c4cccnc43)cc2)c1 (stereo not shown) [Example 13],6.24
5,"Cc1cccc(-n2nc3c4cccnc4n(Cc4ccc(-c5cnn(C)c5)nc4)nc-3c2=O)c1C [Example 1, 2-(2,3-Dimethylphenyl)-5-{[6-(1-methyl-1H-pyrazol-4-yl)pyridin-3-yl]methyl}-2,5-dihydro-3H-pyrazolo[4,3-c]pyrido[3,2-e]pyridazin-3-one]",7.24
6,"O=c1c2nn(Cc3ccc(-n4cccn4)cc3)c3ccsc3c-2nn1C1CCCOC1 (racemic) [Example 37, (±)-5-{[4-(1H-Pyrazol-1-yl)phenyl]methyl}-2-(tetrahydro-2H-pyran-3-yl)-2,5-dihydro-3H-pyrazolo[4,3-c]thieno[2,3-e]pyridazin-3-one]",7.02

# Further compounds by rising pEC50, results first:
row,pEC50,Compound
1,5.77,"O=c1c2nn(Cc3ccc(-c4ccc(O)nc4)cc3)c3ncccc3c-2nn1C1CCCOC1 (racemic) [Example 32, (±)-5-{[4-(6-Hydroxypyridin-3-yl)phenyl]methyl}-2-(tetrahydro-2H-pyran-3-yl)-2,5-dihydro-3H-pyrazolo[4,3-c]pyrido[3,2-e]pyridazin-3-one]"
2,5.94,"Cc1ccc(-c2ccc(Cn3nc4c(=O)n(C5CCCOC5)nc-4c4cccnc43)cn2)cn1 (racemic) [Example 9, (±)-5-[(6′-Methyl-2,3′-bipyridin-5-yl)methyl]-2-(tetrahydro-2H-pyran-3-yl)-2,5-dihydro-3H-pyrazolo[4,3-c]pyrido[3,2-e]pyridazin-3-one]"
3,6.36,"O=c1c2nn(Cc3ccc(-n4cccn4)cc3)c3ncccc3c-2nn1C1CCCOC1 (racemic) [Example 10, (±)-5-{[4-(1H-Pyrazol-1-yl)phenyl]methyl}-2-(tetrahydro-2H-pyran-3-yl)-2,5-dihydro-3H-pyrazolo[4,3-c]pyrido[3,2-e]pyridazin-3-one]"
4,6.43,"Cc1ccc(-c2ccc(Cn3nc4c(=O)n(C5CCCOC5)nc-4c4cccnc43)cc2)cn1 (racemic) [Example 11, (±)-5-{[4-(6-Methylpyridin-3-yl)phenyl]methyl}-2-(tetrahydro-2H-pyran-3-yl)-2,5-dihydro-3H-pyrazolo[4,3-c]pyrido[3,2-e]pyridazin-3-one]"
5,6.53,"O=c1c2nn(Cc3ccc(-c4cscn4)cc3)c3ncccc3c-2nn1C1CCCOC1 (racemic) [Example 31, (±)-2-(Tetrahydro-2H-pyran-3-yl)-5-{[4-(1,3-thiazol-4-yl)phenyl]methyl}-2,5-dihydro-3H-pyrazolo[4,3-c]pyrido[3,2-e]pyridazin-3-one]"
6,6.74,"Cc1ccc(-c2ccc(Cn3nc4c(=O)n(C5CCCOC5)nc-4c4sccc43)cc2)cn1 (racemic) [Example 38, (±)-5-{[4-(6-Methylpyridin-3-yl)phenyl]methyl}-2-(tetrahydro-2H-pyran-3-yl)-2,5-dihydro-3H-pyrazolo[4,3-c]thieno[2,3-e]pyridazin-3-one]"
7,6.85,"Cc1ccc(-c2ccc(Cn3nc4c(=O)n([C@@H]5CCCC[C@H]5O)nc-4c4cccnc43)cn2)cn1 (racemic) [Example 8, (±)-2-(trans-2-Hydroxycyclohexyl)-5-[(6′-methyl-2,3′-bipyridin-5-yl)methyl]-2,5-dihydro-3H-pyrazolo[4,3-c]pyrido[3,2-e]pyridazin-3-one]"
8,6.92,"Cc1cc(-c2ccc(Cn3nc4c(=O)n(C5CCCOC5)nc-4c4sccc43)cc2)ccn1 (racemic) [Example 39, (±)-5-{[4-(2-Methylpyridin-4-yl)phenyl]methyl}-2-(tetrahydro-2H-pyran-3-yl)-2,5-dihydro-3H-pyrazolo[4,3-c]thieno[2,3-e]pyridazin-3-one]"
9,7.32,"Cc1ccccc1-n1nc2c3sccc3n(Cc3ccc(-n4cccn4)cc3)nc-2c1=O [Example 33, 2-(2-Methylphenyl)-5-{[4-(1H-pyrazol-1-yl)phenyl]methyl}-2,5-dihydro-3H-pyrazolo[4,3-c]thieno[2,3-e]pyridazin-3-one]"
10,7.44,"Cc1ccc(-c2ccc(Cn3nc4c(=O)n(-c5cccc(C)c5F)nc-4c4cccnc43)cn2)cn1 [Example 6, 2-(2-Fluoro-3-methylphenyl)-5-[(6′-methyl-2,3′-bipyridin-5-yl)methyl]-2,5-dihydro-3H-pyrazolo[4,3-c]pyrido[3,2-e]pyridazin-3-one]"
